ChEMBL document CHEMBL3045601, “Synthesis of new quinoline-2-pyrazoline-based thiazolinone derivatives as potential antimicrobial agents” (2013)
≈ marks a conversion by molar mass, not a printed value.

Legend:
Format in all cases: functional
Aspergillus clavatus = test: Antifungal activity against Aspergillus clavatus MTCC 1323 assessed as growth inhibition after 48 hr by NCCLS broth microdilution method; details: MTCC 1323, 48 h
Pseudomonas aeruginosa = test: Antibacterial activity against Pseudomonas aeruginosa MTCC 1688 assessed as growth inhibition after 24 hr by NCCLS broth microdilution method; details: MTCC 1688, 24 h
Streptococcus pyogenes = test: Antibacterial activity against Streptococcus pyogenes MTCC 442 assessed as growth inhibition after 24 hr by NCCLS broth microdilution method; details: MTCC 442, 24 h
Aspergillus niger = test: Antifungal activity against Aspergillus niger MTCC 282 assessed as growth inhibition after 48 hr by NCCLS broth microdilution method; details: MTCC 282, 48 h
Staphylococcus aureus = test: Antibacterial activity against Staphylococcus aureus MTCC 96 assessed as growth inhibition after 24 hr by NCCLS broth microdilution method; details: MTCC 96, 24 h
Candida albicans = test: Antifungal activity against Candida albicans MTCC 227 assessed as growth inhibition after 48 hr by NCCLS broth microdilution method; details: MTCC 227, 48 h
Escherichia coli = test: Antibacterial activity against Escherichia coli MTCC 443 assessed as growth inhibition after 24 hr by NCCLS broth microdilution method; details: MTCC 443, 24 h

| MIC (Aspergillus clavatus) [µg/mL] | MIC (Pseudomonas aeruginosa) [µg/mL] | MIC (Streptococcus pyogenes) [µg/mL] | MIC (Aspergillus niger) [µg/mL] | MIC (Staphylococcus aureus) [µg/mL] | MIC (Candida albicans) [µg/mL] | MIC (Escherichia coli) [µg/mL] | SMILES |
| --- | --- | --- | --- | --- | --- | --- | --- |
| 100 (≈ 228 µM) | 50 (≈ 114 µM) | 25 (≈ 57 µM) | 250 (≈ 570 µM) | 100 (≈ 228 µM) | 250 (≈ 570 µM) | 50 (≈ 114 µM) | Cc1ccc2nc(Cl)c(C3CC(c4ccc(F)cc4)=NN3C3=NC(=O)CS3)cc2c1 (stereo unspecified) |
| 12.5 (≈ 26.8 µM) | 12.5 (≈ 26.8 µM) | 25 (≈ 53.7 µM) | 50 (≈ 107 µM) | 250 (≈ 537 µM) | 250 (≈ 537 µM) | 25 (≈ 53.7 µM) | Cc1ccc2nc(Cl)c(C3CC(c4ccccc4[N+](=O)[O-])=NN3C3=NC(=O)CS3)cc2c1 (stereo unspecified) |
| 50 (≈ 107 µM) | 500 (≈ 1070 µM) | 500 (≈ 1070 µM) | 100 (≈ 215 µM) | 500 (≈ 1070 µM) | 500 (≈ 1070 µM) | 250 (≈ 537 µM) | Cc1ccc2nc(Cl)c(C3CC(c4cccc([N+](=O)[O-])c4)=NN3C3=NC(=O)CS3)cc2c1 (stereo unspecified) |
| 100 (≈ 215 µM) | 250 (≈ 537 µM) | 50 (≈ 107 µM) | 25 (≈ 53.7 µM) | 100 (≈ 215 µM) | 500 (≈ 1070 µM) | 50 (≈ 107 µM) | Cc1ccc2nc(Cl)c(C3CC(c4ccc([N+](=O)[O-])cc4)=NN3C3=NC(=O)CS3)cc2c1 (stereo unspecified) |
| 500 (≈ 1190 µM) | 250 (≈ 594 µM) | 500 (≈ 1190 µM) | 500 (≈ 1190 µM) | 250 (≈ 594 µM) | 1000 (≈ 2380 µM) | 500 (≈ 1190 µM) | Cc1ccc2nc(Cl)c(C3CC(c4ccccc4)=NN3C3=NC(=O)CS3)cc2c1 (stereo unspecified) |
| 1000 (≈ 2290 µM) | 500 (≈ 1140 µM) | 250 (≈ 572 µM) | 500 (≈ 1140 µM) | 500 (≈ 1140 µM) | 1000 (≈ 2290 µM) | 500 (≈ 1140 µM) | Cc1ccc2nc(Cl)c(C3CC(c4ccccc4O)=NN3C3=NC(=O)CS3)cc2c1 (stereo unspecified) |
| 1000 (≈ 2290 µM) | 250 (≈ 572 µM) | 250 (≈ 572 µM) | 1000 (≈ 2290 µM) | 500 (≈ 1140 µM) | 1000 (≈ 2290 µM) | 500 (≈ 1140 µM) | Cc1ccc2nc(Cl)c(C3CC(c4ccc(O)cc4)=NN3C3=NC(=O)CS3)cc2c1 (stereo unspecified) |
| 500 (≈ 1110 µM) | 500 (≈ 1110 µM) | 500 (≈ 1110 µM) | 500 (≈ 1110 µM) | 500 (≈ 1110 µM) | 1000 (≈ 2220 µM) | 500 (≈ 1110 µM) | COc1ccc(C2=NN(C3=NC(=O)CS3)C(c3cc4cc(C)ccc4nc3Cl)C2)cc1 (stereo unspecified) |
| 100 (≈ 220 µM) | 50 (≈ 110 µM) | 50 (≈ 110 µM) | 50 (≈ 110 µM) | 250 (≈ 549 µM) | 100 (≈ 220 µM) | 50 (≈ 110 µM) | Cc1ccc2nc(Cl)c(C3CC(c4ccccc4Cl)=NN3C3=NC(=O)CS3)cc2c1 (stereo unspecified) |
| 50 (≈ 110 µM) | 100 (≈ 220 µM) | 50 (≈ 110 µM) | 100 (≈ 220 µM) | 50 (≈ 110 µM) | 500 (≈ 1100 µM) | 250 (≈ 549 µM) | Cc1ccc2nc(Cl)c(C3CC(c4ccc(Cl)cc4)=NN3C3=NC(=O)CS3)cc2c1 (stereo unspecified) |
| 500 (≈ 1140 µM) | 250 (≈ 570 µM) | 500 (≈ 1140 µM) | 50 (≈ 114 µM) | 100 (≈ 228 µM) | 100 (≈ 228 µM) | 25 (≈ 57 µM) | Cc1ccc2nc(Cl)c(C3CC(c4ccccc4F)=NN3C3=NC(=O)CS3)cc2c1 (stereo unspecified) |
| 500 (≈ 1140 µM) | 100 (≈ 228 µM) | 100 (≈ 228 µM) | 500 (≈ 1140 µM) | 500 (≈ 1140 µM) | 1000 (≈ 2280 µM) | 500 (≈ 1140 µM) | Cc1ccc2nc(Cl)c(C3CC(c4cccc(F)c4)=NN3C3=NC(=O)CS3)cc2c1 (stereo unspecified) |
| 100 (≈ 283 µM) | – | – | 100 (≈ 283 µM) | – | 500 (≈ 1420 µM) | – | COC1=CC(=O)C[C@@H](C)[C@]12Oc1c(Cl)c(OC)cc(OC)c1C2=O [GRISEOFULVIN] |

| SMILES | MIC (Aspergillus clavatus) [µg/mL] | MIC (Pseudomonas aeruginosa) [µg/mL] | MIC (Streptococcus pyogenes) [µg/mL] | MIC (Aspergillus niger) [µg/mL] | MIC (Staphylococcus aureus) [µg/mL] | MIC (Candida albicans) [µg/mL] | MIC (Escherichia coli) [µg/mL] |
| --- | --- | --- | --- | --- | --- | --- | --- |
| CC1(C)S[C@@H]2[C@H](NC(=O)[C@H](N)c3ccccc3)C(=O)N2[C@H]1C(=O)O [AMPICILLIN] | – | 100 (≈ 286 µM) | 100 (≈ 286 µM) | – | 250 (≈ 715 µM) | – | 100 (≈ 286 µM) |
